Assay results as given in patent publication US20250066864A1, “METHODS FOR IDENTIFYING ADAR1 INHIBITORS, AND COMPOSITIONS AND METHODS OF USE IN TREATING CANCER” (The Wistar Institute of Anatomy and Biology, priority 2021, published 2025).
“Also recorded” adds a separate entry of the source. Like-named read-outs stand apart in the source and are kept apart here.

Tests used:
[1] = target: T1, ADAR1p110 (Homo sapiens, UniProt P55265); assay: in vitro editing assay with recombinant ADAR1p110 and dsRNA or DNA:RNA substrates; type: biochemical; settings: for inhibitory potency of ADAR1 p110 editing activity (SAR analogs): data not shown
T1 construct: HAT (N); FLAG (alternative preparation, not on the same molecule as HAT) (N); made in house; host or cells: Sf9 insect cells, baculovirus
T1 sequence (P55265 1-931 isoform P55265-5): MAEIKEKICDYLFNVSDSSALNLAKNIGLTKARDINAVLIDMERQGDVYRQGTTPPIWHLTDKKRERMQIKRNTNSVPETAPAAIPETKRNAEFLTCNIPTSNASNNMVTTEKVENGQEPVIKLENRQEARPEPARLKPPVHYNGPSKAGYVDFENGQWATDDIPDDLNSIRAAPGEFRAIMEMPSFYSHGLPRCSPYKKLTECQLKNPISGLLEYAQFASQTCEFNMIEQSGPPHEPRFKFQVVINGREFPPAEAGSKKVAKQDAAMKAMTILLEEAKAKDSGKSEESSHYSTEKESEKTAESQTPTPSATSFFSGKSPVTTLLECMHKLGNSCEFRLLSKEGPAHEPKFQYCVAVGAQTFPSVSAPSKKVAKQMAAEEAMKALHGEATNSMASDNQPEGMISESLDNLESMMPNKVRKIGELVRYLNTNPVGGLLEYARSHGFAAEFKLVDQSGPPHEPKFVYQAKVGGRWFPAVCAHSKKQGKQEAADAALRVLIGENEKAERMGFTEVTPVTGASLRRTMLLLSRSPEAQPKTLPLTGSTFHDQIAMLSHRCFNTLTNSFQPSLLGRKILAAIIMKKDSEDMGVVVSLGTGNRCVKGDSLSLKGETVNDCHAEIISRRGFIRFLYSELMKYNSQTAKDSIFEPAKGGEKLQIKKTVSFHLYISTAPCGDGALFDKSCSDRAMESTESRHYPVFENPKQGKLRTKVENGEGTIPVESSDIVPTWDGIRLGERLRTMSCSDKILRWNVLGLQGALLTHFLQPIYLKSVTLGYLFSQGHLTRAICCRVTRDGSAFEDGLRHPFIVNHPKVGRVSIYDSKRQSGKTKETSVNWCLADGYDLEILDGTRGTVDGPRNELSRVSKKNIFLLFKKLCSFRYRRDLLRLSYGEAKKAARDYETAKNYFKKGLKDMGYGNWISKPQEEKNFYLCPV
Description: FIG. 26A-FIG. 26B show determination of IC50 by in vitro editing assay. In vitro editing assay using purified ADAR1p110 protein and two different substrates, matched (left) and mismatched (right) dsRNAs, was conducted in the presence of varying concentrations of compound #1 (FIG. 26A) or #13 (FIG. 26B) in order to estimate IC50 values for these compounds. In vitro editing was carried out using HAT-ADAR1p110 or HAT-ADAR2 recombinant protein (10 nM) and two different dsRNA substrates carrying a part of the CDK13 gene sequence (5 nM) at 37° C. for 2 hrs as described previously (12). Compounds were dissolved in 100% DMSO. The in vitro assay contained DMSO at final concentration of 16%.
The in vitro editing reaction mixture, containing 5 nM of telomere RNA:RNA duplex substrates and 75 nM of HAT-ADAR1p110-WT, FLAG-ADAR1p110-WT, or HA-ADAR1p110-EAA protein, was incubated at 37° C. for 2 h in in vitro editing buffer I (20 mM HEPES-KOH pH 7.5, 100 mM NaCl, 0.01% NP-40, 5% glycerol, 1 mM DTT). For editing of RNA:DNA hybrid substrates, in vitro editing buffer II (20 mM HEPES-KOH pH 7.5, 20 mM NaCl, 0.01% NP-40, 5% glycerol, 1 mM DTT) was used. Edited RNA or DNA strands were purified using Dynabeads MyOne Streptavidin C1 (Thermo Fisher Scientific). To remove opposite RNA or DNA strands, rNase H (NEB) or TURBO dNase (Thermo Fisher Scientific) was used, respectively. For sequencing of edited substrates, reverse transcription-PCR was carried out for RNA strands, while PCR was carried out for DNA strands. RT reactions were carried out using SuperScript III Reverse Transcriptase (Thermo Fisher Scientific), and PCR reactions were performed using Platinum Taq DNA polymerase (Thermo Fisher Scientific). PCR products were sequenced using a specific sequencing primer, and the ratio of A and G peaks in the chromatograms were analyzed by CodonCode Aligner (CodonCode Corporation).
The 54 compounds identified in the high-throughput screen were further tested in the in vitro editing assay described in Examples 1 and 2. The in vitro editing reaction mixture, containing 5 nM of telomere RNA:RNA duplex substrates and 75 nM of HAT-ADAR1p110-WT, FLAG-ADAR1p110-WT, or HA-ADAR1p110-EAA protein, was incubated at 37° C. for 2 h in in vitro editing buffer I (20 mM HEPES-KOH pH 7.5, 100 mM NaCl, 0.01% NP-40, 5% glycerol, 1 mM DTT) with 10 microM test compound. For editing of RNA:DNA hybrid substrates, in vitro editing buffer II (20 mM HEPES-KOH pH 7.5, 20 mM NaCl, 0.01% NP-40, 5% glycerol, 1 mM DTT) was used. Edited RNA or DNA strands were purified using Dynabeads MyOne Streptavidin C1 (Thermo Fisher Scientific). To remove opposite RNA or DNA strands, Rnase H (NEB) or TuRBO Dnase (Thermo Fisher Scientific) was used, respectively. For sequencing of edited substrates, reverse transcription-PCR was carried out for RNA strands, while PCR was carried out for DNA strands. RT reactions were carried out using SuperScript III Reverse Transcriptase (Thermo Fisher Scientific), and PCR reactions were performed using Platinum Taq DNA polymerase (Thermo Fisher Scientific). PCR products were sequenced using a specific sequencing primer, and the ratio of A and G peaks in the chromatograms were analyzed by CodonCode Aligner (CodonCode Corporation).

[2] = tested on: HeLa cells; assay: Apo Tox-Glo viability assay, HeLa cells; type: cell-based, human; settings: 5 μM, 3 days
Description: (§1) HeLa, U2OS, and MRI90 cells were cultured in the presence of ADAR1 inhibitors, 5 μM or 20 μM, for 3 days. Their viability was examined using the Apo Tox-Glo assay system (Promega), which measures plasma membrane penetration of glycyl-phenyl-alanyl-aminofluorocoumarin peptide. Control, 0.3% DMSO. […] Data are mean±S.D. (n=3, biological replicates).
(§2) FIGS. 29A-29D Characterization of Compound #13 effects in cancer cells. […] Viability was examined using the Apo Tox-Glo assay system (Promega). Control, 0.3% DMSO. (FIG. 29B) Western blotting analysis of HeLa cells treated with Compound #13 (10 μM). […] (FIG. 29D) Activation of the IFN signaling pathway. HSC-4 squamous carcinoma cells were treated with Compound #13 at 10 μM (12 hrs). RNA samples were analyzed by qRT-PCR to monitor expression levels of ISGs.

[3] = tested on: U2OS cells; assay: Apo Tox-Glo viability assay, U2OS cells; type: cell-based, human; settings: 5 μM, 3 days
Description: as §1, §2

[4] = tested on: IMR90 normal fibroblast cells; assay: Apo Tox-Glo viability assay, IMR90 normal fibroblast cells; type: cell-based; settings: 5 μM, 3 days
Description: as §1, §2

[5] = matched dsRNA substrate, read-out: IC50 estimated by in vitro editing assay, RNA:RNA
[6] = DNA:RNA mismatched hybrid substrate, read-out: IC50 estimated by in vitro editing assay, DNA:mmRNA
[7] = mismatched dsRNA substrate, read-out: IC50 estimated by in vitro editing assay, RNA:mmRNA

| Structure (SMILES) | IC50 [1, 5] [µM] | IC50 [1, 6] [µM] | viability of HeLa (non-ALT) cells [2] | viability of MRI90 (normal fibroblast) cells [4] | IC50 [1, 7] [µM] | further results |
| --- | --- | --- | --- | --- | --- | --- |
| N#Cc1c(-c2ccccc2)cc(SCc2ccc(Cl)cc2)n2c1nc1ccccc12 [compound 23, 1-[(4-chlorophenyl)methylsulfanyl]-3-phenylpyrido[1,2-a]benzimidazole-4-carbonitrile] | 66.9 |  |  |  |  | IC50 ([1]; mismatched dsRNA substrate, adenosine position 6, read-out: IC50 estimated by in vitro editing assay, RNA:mmRNA, Position 6): 66.4 µM |
| CSc1[nH]nc(-c2ccc(Cl)cc2)c1C#N [compound 27, 5-(4-chlorophenyl)-3-methylsulfanyl-1H-pyrazole-4-carbonitrile] |  | 5 to 17 | significantly decreased viability; also recorded: significantly reduced viability | very little effects |  | viability of U2OS (ALT) cells [3]: very little effects |
| O=C(Nc1ccccc1)c1sc2ccccc2c1Cl [Compound #13-Analog 1] |  |  |  |  |  | inhibitory potency of ADAR1 p110 editing activity (SAR analogs) [1]: complete loss of inhibitory potency; also recorded: inactive compound |
| N#Cc1ccccc1NC(=O)c1sc2ccccc2c1Cl [Compound #13-Analog 2] |  |  |  |  |  | inhibitory potency of ADAR1 p110 editing activity (SAR analogs) [1]: weaker but retained A-to-I editing inhibitory activity |
| COc1cc(C2=NNC(=O)CC2)cc(OC)c1OC [compound 40, 3-(3,4,5-trimethoxyphenyl)-4,5-dihydro-1H-pyridazin-6-one] | 57.6 |  |  |  | 27.2 |  |
| CSc1nc(SC)c(C#N)c(-c2ccco2)n1 [compound 52, 4-(furan-2-yl)-2,6-bis(methylsulfanyl)pyrimidine-5-carbonitrile] |  | 1.5 to 3 |  |  |  | inhibition of editing of A:U matched dsRNA ([1]; matched dsRNA substrate, FIG. 25C, 10 microM test compound): not A:U matched dsRNA; inhibition of editing of A-C mismatched dsRNA ([1]; mismatched dsRNA substrate, FIG. 25C, 10 microM test compound): inhibited A-C mismatched dsRNA; inhibition of editing of A-C mismatched dsRNA ([1]; mismatched dsRNA substrate, FIG. 25C, 10 microM test compound, listed as #52): more specific inhibitory effects on adenosine at A-C mismatched base pairs |
| Cc1cc(C)n(-c2ccc(N3CCSCC3)nn2)n1 [compound 37, 4-[6-(3,5-dimethylpyrazol-1-yl)pyridazin-3-yl]thiomorpholine] |  | 3 to 10 |  |  | 46 | IC50 ([1]; matched dsRNA substrate, adenosine position 2, read-out: IC50 estimated by in vitro editing assay, RNA:RNA, Position 2): 68.5 µM; IC50 ([1]; matched dsRNA substrate, adenosine positions 3 & 6, read-out: IC50 estimated by in vitro editing assay, RNA:RNA, Position 3 & 6): 3 µM |
| NC(=NOC(=O)c1ccc([N+](=O)[O-])o1)c1ccc(OCc2ccc(Cl)cc2)c(Cl)c1 [Compound #1, [[amino-[3-chloro-4-[(4-chlorophenyl)methoxy]phenyl]methylidene]amino]5-nitrofuran-2-carboxylate] | 27 |  | significantly decreased viability; also recorded: significantly reduced viability | very little effects | 33 |  |
| Cc1cc(C)n2nc(-c3ccccc3)cc2n1 [compound 6, 5,7-dimethyl-2-phenylpyrazolo[1,5-a]pyrimidine] |  | 30 to 76 | significantly decreased viability; also recorded: significantly reduced viability | very little effects |  | viability of U2OS (ALT) cells [3]: very little effects |
